Source: PubChem BioAssay AID2060887 (Molecular Pharmacology Branch, DTP, NCI, 2025)
Blank lines part the entries; values can stand above or below the compound they belong to.

System: 782815-120-R-J1-PDC complex spheroid viability
Experiment: Anticancer human tumor 782815-120-R-J1-PDC patient-derived colon adenocarcinoma cell line growth inhibition [RAS]
Settings: for IC50: curve of first compound; for viability, T/C: stronger effect = lower value
Source text: RAS pathway inhibitors in Combinations in Complex Spheroids
A high-throughput screen of multi-cell type tumor spheroids was designed to identify active combinations of RAS pathway inhibitors and targeted small molecules. Complex spheroids include a stromal component modeled by human endothelial cells (HUVEC) and fibroblasts modeled by human mesenchymal stem cells (MSCs). The concentration ranges selected for each drug and investigational agent were based upon clinically achievable concentrations if the clinical Cmax of the agent was known.
Compounds. The drugs and investigational agents: abemaciclib (NSC768073), cobimetinib (NSC768068), divarasib (GDC6063, NSC841802), docetaxel (NSC628503), GDC-1971 (RLY-1971, NSC841576), gemcitabine (NSC613327), inavolisib (NSC800729), ipatasertib (NSC767898), KB-0742 (NSC834161), MRTX-1133 (NSC836407), osimertinib (NSC779217), RMC-4630 (NSC839698), RMC-6236 (NSC851965), RMC-6291 (NSC852671), Ro-3306 (NSC812927), sapanisertib (NSC764658), SN-38 (NSC673596), staurosporine (NSC755774), SY5609 (NSC837396), and tovorafenib (DAY101, NSC766906), were obtained from the National Cancer Institute (NCI) Developmental Therapeutics Program Chemical Repository. The FDA-approved anticancer drug set is available from the NCI Developmental Therapeutics Program. […] The stock solutions were prepared in dimethyl sulfoxide (DMSO, Sigma-Aldrich, St. Louis, MO, cat. D2650) at 800-fold the tested concentration and stored at -70 degrees C prior to their use. All drugs and investigational agents were tested over a range starting from a high concentration at or near the clinical Cmax and decreasing in half-log increments. If the clinical Cmax for an agent had not been determined, the highest concentration tested was 10 microM.
Cell Culture. All cells were maintained in an incubator at 37 degrees C and 5% CO2 with 95% humidity. The PDC lines were cultured according to standard operating procedures established by the NCI PDMR. All PDCs were thawed and cultured in Matrigel-coated flasks prepared with a working solution of 1X Ham's F-12 nutrient mix, without supplementation (Invitrogen, Waltham, MA, cat. 11765054), 100 U/mL penicillin-streptomycin (Invitrogen, cat. 15140122), and 2.5% Matrigel (Corning Inc., Corning, NY, cat. 354248) for the first three passages. The 362531-283-R-J2-PDC and 782815-120-R-J1-PDC lines were cultured in 6C/Colon 1B media, which includes advanced DMEM/F-12 (Thermo Fisher Scientific, cat. 12634028), 10 mM HEPES (Thermo Fisher Scientific, cat. 15630080), 1X GlutaMAX supplement (Thermo Fisher Scientific, cat. 35050061), 0.1 mg/mL primocin (InvivoGen, San Diego, CA, cat. ant-pm-2), 10% defined fetal bovine serum, heat inactivated (HyClone Laboratories Inc., Logan, UT, cat. SH30070.03HI), 50% L-WRN conditioned media (ATCC, cat. CRL-3276), 1.25 mM N-Acetyl-L-cysteine (Sigma-Aldrich, cat. A9165), 10 mM nicotinamide (Sigma-Aldrich, cat. N0636), 1X B-27 supplement (Thermo Fisher Scientific, cat. 17504044), 1X N-2 supplement (Thermo Fisher Scientific, cat. 17502048), 50 ng/mL human EGF (Thermo Fisher Scientific, cat. PHG0311), and 10 microM Y-27632 dihydrochloride (Tocris Bioscience, cat. 1254). The K12877-001-R-J1-PDC line was cultured in 6I media, which includes all 6C/Colon 1B media plus 10 ng/mL human FGF-10 (PeproTech, cat. 100-26), 1 ng/mL human FGF-2 (PeproTech, cat. 100-18B), 1 µM prostaglandin E2 (Tocris Bioscience, cat. 2296), […] hydrocortisone (Sigma-Aldrich, cat. H4001), and […] bovine insulin (Sigma-Aldrich, cat. I6634). The K86415-001-R-J1-PDC line was cultured in 6D media, which includes all 6C/Colon 1B media components minus the L-WRN conditioned media. The 485176-168-R4-J1-PDC was cultured in PANC media, which includes all 6C/Colon 1B media plus 100 ng/mL human FGF-10 (PeproTech, cat. 100-26), 500 nM SB-431542 (Selleckchem, cat. S1067), and 10 nM gastrin (Tocris Bioscience, cat. 3006). […]

[1] = second compound 0.0316 µM, first compound 0.0316 µM
[2] = second compound 0.0316 µM, first compound 0.1 µM
[3] = second compound 0.0316 µM, first compound 0.316 µM
[4] = second compound 0.0316 µM, first compound 1 µM
[5] = second compound 0.0316 µM, first compound 3.16 µM
[6] = second compound 0.0316 µM, first compound 10 µM
[7] = second compound 0.1 µM, first compound 0.0316 µM
[8] = second compound 0.1 µM, first compound 0.1 µM
[9] = second compound 0.1 µM, first compound 0.316 µM
[10] = second compound 0.1 µM, first compound 1 µM
[11] = second compound 0.1 µM, first compound 3.16 µM
[12] = second compound 0.1 µM, first compound 10 µM
[13] = second compound 0.316 µM, first compound 0.0316 µM
[14] = second compound 0.316 µM, first compound 0.1 µM
[15] = second compound 0.316 µM, first compound 0.316 µM
[16] = second compound 0.316 µM, first compound 1 µM
[17] = second compound 0.316 µM, first compound 3.16 µM
[18] = second compound 0.316 µM, first compound 10 µM
[19] = second compound 1 µM, first compound 0.0316 µM
[20] = second compound 1 µM, first compound 0.1 µM
[21] = second compound 1 µM, first compound 0.316 µM
[22] = second compound 1 µM, first compound 1 µM
[23] = second compound 1 µM, first compound 3.16 µM
[24] = second compound 1 µM, first compound 10 µM
[25] = second compound 3.16 µM, first compound 0.0316 µM
[26] = second compound 3.16 µM, first compound 0.1 µM
[27] = second compound 3.16 µM, first compound 0.316 µM
[28] = second compound 3.16 µM, first compound 1 µM
[29] = second compound 3.16 µM, first compound 3.16 µM
[30] = second compound 3.16 µM, first compound 10 µM
[31] = second compound 10 µM, first compound 0.0316 µM
[32] = second compound 10 µM, first compound 0.1 µM
[33] = second compound 10 µM, first compound 0.316 µM
[34] = second compound 10 µM, first compound 1 µM
[35] = second compound 10 µM, first compound 3.16 µM
[36] = second compound 10 µM, first compound 10 µM
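Further: spheroids exposed to compounds for 7 days before reading.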
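Wherever viability, T/C is given: 100% = DMSO vehicle control viability.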

IC50 (second compound 0.0316 µM): 2.5 µM | IC50 (second compound 0.1 µM): 2.63 µM | IC50 (second compound 0.316 µM): 2.82 µM | IC50 (second compound 1 µM): 2.39 µM | IC50 (second compound 3.16 µM): 2.56 µM | IC50 (second compound 10 µM): 2.36 µM
SMILES: CCC(CC)c1cc(NC2CCC(N)C2)n2nccc2n1 (stereo unspecified) + C#Cc1c(F)ccc2cc(O)cc(-c3ncc4c(N5CC6CCC(C5)N6)nc(OCC56CCCN5CC(F)C6)nc4c3F)c12
viability, T/C [1]: 93.3% | viability, T/C [2]: 90.7% | viability, T/C [3]: 99.4% | viability, T/C [4]: 100% | viability, T/C [5]: 38.2% | viability, T/C [6]: 1.67% | viability, T/C [7]: 99.2% | viability, T/C [8]: 103% | viability, T/C [9]: 96.9% | viability, T/C [10]: 104% | viability, T/C [11]: 40.3% | viability, T/C [12]: 1.65% | viability, T/C [13]: 105% | viability, T/C [14]: 109% | viability, T/C [15]: 103% | viability, T/C [16]: 111% | viability, T/C [17]: 43.7% | viability, T/C [18]: 2.09% | viability, T/C [19]: 96.3% | viability, T/C [20]: 90.1% | viability, T/C [21]: 101% | viability, T/C [22]: 105% | viability, T/C [23]: 34.4% | viability, T/C [24]: 1.52% | viability, T/C [25]: 104% | viability, T/C [26]: 95% | viability, T/C [27]: 91.2% | viability, T/C [28]: 99% | viability, T/C [29]: 39.3% | viability, T/C [30]: 1.84% | viability, T/C [31]: 106% | viability, T/C [32]: 90.6% | viability, T/C [33]: 92.2% | viability, T/C [34]: 103% | viability, T/C [35]: 33.7% | viability, T/C [36]: 1.27%

IC50 (second compound 0.0316 µM): > 10 µM | IC50 (second compound 0.1 µM): > 10 µM | IC50 (second compound 0.316 µM): > 10 µM | IC50 (second compound 1 µM): > 10 µM | IC50 (second compound 3.16 µM): > 10 µM | IC50 (second compound 10 µM): > 10 µM
SMILES: Cc1nc(N2CCC3(CC2)COC(C)C3N)c(CO)nc1Sc1ccnc(N)c1Cl (stereo unspecified) + C#Cc1c(F)ccc2cc(O)cc(-c3ncc4c(N5CC6CCC(C5)N6)nc(OCC56CCCN5CC(F)C6)nc4c3F)c12
viability, T/C [1]: 94.9% | viability, T/C [2]: 99.1% | viability, T/C [3]: 97.7% | viability, T/C [4]: 90.2% | viability, T/C [5]: 91.5% | viability, T/C [6]: 95.2% | viability, T/C [7]: 96% | viability, T/C [8]: 109% | viability, T/C [9]: 106% | viability, T/C [10]: 99.7% | viability, T/C [11]: 105% | viability, T/C [12]: 98.7% | viability, T/C [13]: 104% | viability, T/C [14]: 102% | viability, T/C [15]: 91.9% | viability, T/C [16]: 94.7% | viability, T/C [17]: 92.1% | viability, T/C [18]: 99.7% | viability, T/C [19]: 94.3% | viability, T/C [20]: 90.1% | viability, T/C [21]: 104% | viability, T/C [22]: 88.8% | viability, T/C [23]: 102% | viability, T/C [24]: 98.1% | viability, T/C [25]: 99.3% | viability, T/C [26]: 96.8% | viability, T/C [27]: 86% | viability, T/C [28]: 93.6% | viability, T/C [29]: 97% | viability, T/C [30]: 92.9% | viability, T/C [31]: 101% | viability, T/C [32]: 96.7% | viability, T/C [33]: 93.4% | viability, T/C [34]: 92.6% | viability, T/C [35]: 105% | viability, T/C [36]: 92.3%

IC50 (second compound 0.0316 µM): > 10 µM | IC50 (second compound 0.1 µM): > 10 µM | IC50 (second compound 0.316 µM): > 10 µM | IC50 (second compound 1 µM): > 10 µM | IC50 (second compound 3.16 µM): > 10 µM | IC50 (second compound 10 µM): > 10 µM
SMILES: NC1c2ccccc2OC12CCN(c1cnc3c(N4CCCc5ncccc54)n[nH]c3n1)CC2 (stereo unspecified) + C#Cc1c(F)ccc2cc(O)cc(-c3ncc4c(N5CC6CCC(C5)N6)nc(OCC56CCCN5CC(F)C6)nc4c3F)c12
viability, T/C [1]: 110% | viability, T/C [2]: 104% | viability, T/C [3]: 111% | viability, T/C [4]: 95.3% | viability, T/C [5]: 99.8% | viability, T/C [6]: 84% | viability, T/C [7]: 103% | viability, T/C [8]: 96% | viability, T/C [9]: 110% | viability, T/C [10]: 106% | viability, T/C [11]: 94.4% | viability, T/C [12]: 76.6% | viability, T/C [13]: 99.6% | viability, T/C [14]: 105% | viability, T/C [15]: 103% | viability, T/C [16]: 106% | viability, T/C [17]: 96.7% | viability, T/C [18]: 90.4% | viability, T/C [19]: 109% | viability, T/C [20]: 102% | viability, T/C [21]: 110% | viability, T/C [22]: 106% | viability, T/C [23]: 105% | viability, T/C [24]: 83.7% | viability, T/C [25]: 102% | viability, T/C [26]: 97.1% | viability, T/C [27]: 102% | viability, T/C [28]: 98.9% | viability, T/C [29]: 99% | viability, T/C [30]: 96.7% | viability, T/C [31]: 101% | viability, T/C [32]: 101% | viability, T/C [33]: 115% | viability, T/C [34]: 100% | viability, T/C [35]: 94.7% | viability, T/C [36]: 80.4%
